Reference: patent US20100137376A1 (priority 2007, published 2010)

Experiments:
Stagonospora nodorum = assay: Test of Preventive Effect on Wheat Glume Blotch; assay type: in vivo; conditions: wheat (Shirogane), foliage application 500 ppm before inoculation, 18° C. 4 days dark high humidity then 4 days lighting
Description: (§1) In the following Test Examples, foliage application was accomplished by spraying each test solution over a different plant.
(§2) The controlling effect was evaluated by visually observing the area or lesion spots on each of test plants at the time of investigation and comparing the area of lesion spots on a plant treated with the present compound with that on an untreated plant.
Each of plastic pots was filled with sandy loam and sown with wheat (cultivar; Shirogane), followed by growing in a greenhouse for 10 days.
Each of the present compounds 1 and 3 to 37 was formulated into a flowable formulation according to Formulation Example 6. The flowable formulation was diluted to a predetermined concentration (500 ppm) with water, and foliage application of the dilution was carried out so that the dilution could adhere sufficiently to the surfaces of leaves of the grown wheat seedling.
The wheat which was applied by the dilution was air-dried and then inoculated by spraying a water suspension of spores of Stagonospora nodorum.
After the inoculation, the plant was held under darkness and high humidity conditions at 18° C. for 4 days and then under lighting conditions for 4 days, and then the area of lesion spots was investigated.

Septoria tritici = assay: Test of Preventive Effect on Wheat Leaf Blotch; assay type: in vivo; conditions: wheat (Apogee), foliage application 500 ppm, inoculation after 3 or 4 days, 18° C. high humidity 3 days then lighting 14 to 18 days
Description: as §1, §2
Each of plastic pots was filled with sandy loam and sown with wheat (cultivar: Apogee), followed by growing in a greenhouse for 10 days. Each of the present compounds 49 to 52 was formulated into a flowable formulation according to Formulation Example 6. The flowable formulation was diluted to a predetermined concentration (500 ppm) with water, and foliage application of the dilution was carried out so that the dilution could adhere sufficiently to the surfaces of leaves of the grown wheat seedling. After the application, the plant was air-dried. After 3 or 4 days, the plant was inoculated by spraying a water suspension of spores of Septoria tritici. After the inoculation, the plant was held under high humidity conditions at 18° C. for 3 days and then under lighting condition for 14 to 18 days. Then, the area of lesion spots was investigated.

SMILES	area of lesion spots on the treated plant relative to that on an untreated plant (Stagonospora nodorum)	area of lesion spots on the treated plant relative to that on an untreated plant (Septoria tritici)
O=C(NCC1CCCCC1)c1ccnc(F)c1 [compound 4]	≤ 30%	–
CC1CCCCC1NC(=O)c1cc(N)nc(F)c1 (centres unmarked) [compound 50]	–	≤ 30%
